According to patent US20090098529A1 (priority 2006, published 2009):
Read-outs that look alike come from different tables or passages of the source.

What was measured:
Settings in all cases: mouse, in vivo
PANC-1 tumors [1] = system: PANC-1 tumors; design: species or system nude mice
A549 tumors = system: A549 tumors; design: species or system nude mice
PANC-1 tumors [2] = system: PANC-1 tumors; design: species or system nude mice; remark: listed apart in the source
GI-101A tumors = system: GI-101A tumors

N.N.[Cl][Pt][Cl] [Cisplatin, cis-diamminedichloroplatinum]
Effect on tumor growth (PANC-1 tumors [1]): unable to arrest tumor growth

Nc1ccn([C@@H]2O[C@H](CO)[C@@H](O)C2(F)F)c(=O)n1 [Gemcitabine]
Effect on tumor growth (A549 tumors): actually increased tumor growth | Effect on tumor growth (PANC-1 tumors [2]): moderately decreased tumor growth

Nc1ccn(C[C@@H](CO)OCP(=O)(O)O)c(=O)n1 [cidofovir]
Interference with tumor therapy by the virus (GI-101A tumors): did not significantly interfere with tumor therapy by the virus | Survival time of GLV-1h74 injected mice (GI-101A tumors): significantly extended the survival time
